Structures can show the parent of a compound that is named as a salt. One block for each molecule: values may come before it. Peptide text beside a SMILES is read from it.
Experiments:
ATCC strains = tested on: ATCC strains
Text: (§1) A total of 18 bacterial strains relevant to orthopedic infections were used for microbiological tests, including 8 ATCC (American Type Culture Collection, ATCC, Manassas, VA, USA) and 10 clinical isolates (CI) from the Laboratory of Clinical Chemistry and Microbiology, IRCCS Ospedale Galeazzi–Sant’Ambrogio of Milan (Italy) strain collection. The ATCC strains were used for the first screening (MIC/MBC) of all the AMPs produced, while the clinical isolates were used for further MIC/MBC assays on selected AMPs. Among CI, S. epidermidis GOI1153754-03-14 has been already characterized and used in previous studies. All the strains were stocked at −80°C and working stocks were stored at −20 °C. At the occurrence, the bacteria were resuscitated in Brain Hearth Infusion (BHI, Millipore, Milan, Italy) broth at 37 °C for 18 h from the working stocks.
(§2) To determine the minimum inhibitory concentration (MIC) and the minimum bactericidal concentration (MBC), ISO20776-1 and Clinical and Laboratory Standards Institute guidelines were followed. A commercial synthetic LL-37 (Aurogene, Rome, Italy) was used as the control in the MIC and MBC assays. A stock solution of each AMP was prepared at 600 µg/mL to achieve a final concentration of 300 µg/mL. […] The MIC was determined according to the aforementioned standard guidelines. The MBC was determined by plating 2 µL of culture from each well of the MIC plates on a Tryptic Soy Agar (TSA, Millipore, Milan, Italy) plate and incubated for 24 h at 37 °C. The concentration at which there was no growth was recorded as MBC. Each experiment was carried out in triplicate. Representative MIC and MBC values for vancomycin and gentamicin were assessed to offer a benchmark comparison for the AMPs. Quality control was conducted with Staphylococcus aureus ATCC 29,213 and vancomycin according to EUCAST guidelines.

[1] = tested on: S. epidermidis ATCC 14990; assay: microbe, parasite or virus in culture
Text: as §1, §2

S. aureus ATCC 25923 = assay: microbe, parasite or virus in culture
Text: as §1, §2

P. aeruginosa ATCC 27853 = assay: microbe, parasite or virus in culture
Text: as §1, §2

S. aureus ATCC 43300 = assay: microbe, parasite or virus in culture
Text: as §1, §2

[2] = tested on: S. epidermidis ATCC 35984; assay: microbe, parasite or virus in culture
Text: as §1, §2

E. coli ATCC 25922 = assay: microbe, parasite or virus in culture
Text: as §1, §2

S. aureus ATCC 49230 = assay: microbe, parasite or virus in culture
Text: as §1, §2

- MIC values over all ATCC strains tested (ATCC strains; 18 h): greater than 300 µg/mL
- Minimum Inhibitory Concentration (MIC) ([1]; ATCC 14990, 18 h): >300.00 µg/mL
- Minimum Inhibitory Concentration (MIC) (S. aureus ATCC 25923; ATCC 25923, 18 h): >300.00 µg/mL
- Minimum Inhibitory Concentration (MIC) (P. aeruginosa ATCC 27853; ATCC 27853, 18 h): >300.00 µg/mL
- Minimum Inhibitory Concentration (MIC) (S. aureus ATCC 43300; ATCC 43300, 18 h): >300.00 µg/mL
- Minimum Inhibitory Concentration (MIC) ([2]; ATCC 35984, 18 h): >300.00 µg/mL
- Minimum Inhibitory Concentration (MIC) (E. coli ATCC 25922; ATCC 25922, 18 h): >300.00 µg/mL
- Minimum Inhibitory Concentration (MIC) (S. aureus ATCC 49230; ATCC 49230, 18 h): >300.00 µg/mL
Compound: CC[C@H](C)[C@H](NC(=O)[C@H](CCCNC(=N)N)NC(=O)[C@H](CCC(N)=O)NC(=O)[C@@H](NC(=O)[C@@H](NC(=O)[C@H](CCCNC(=N)N)NC(=O)[C@@H](N)CCCCN)[C@@H](C)CC)C(C)C)C(=O)N[C@@H](CCCCN)C(=O)N[C@@H](CC(=O)O)C(=O)N[C@@H](Cc1ccccc1)C(=O)N[C@@H](CC(C)C)C(=O)N[C@@H](CCCNC(=N)N)C(N)=O [KR-12] (H-KRIVQRIKDFLR-NH2)
- Minimum Bactericidal Concentration (MBC) ([1]; ATCC 14990, 24 h): >300.00 µg/mL
- Minimum Bactericidal Concentration (MBC) (S. aureus ATCC 25923; ATCC 25923, 24 h): >300.00 µg/mL
- Minimum Bactericidal Concentration (MBC) (P. aeruginosa ATCC 27853; ATCC 27853, 24 h): >300.00 µg/mL
- Minimum Bactericidal Concentration (MBC) (S. aureus ATCC 43300; ATCC 43300, 24 h): >300.00 µg/mL
- Minimum Bactericidal Concentration (MBC) ([2]; ATCC 35984, 24 h): >300.00 µg/mL
- Minimum Bactericidal Concentration (MBC) (E. coli ATCC 25922; ATCC 25922, 24 h): >300.00 µg/mL
- Minimum Bactericidal Concentration (MBC) (S. aureus ATCC 49230; ATCC 49230, 24 h): >300.00 µg/mL

Compound: O=C(O)C(F)(F)F [Na-TFA, Trifluoroacetic acid, reference compound]
- Bacteriostatic or bactericidal effect (ATCC strains; all ATCC strains, at the concentrations tested (up to 200 µg/mL)): no bacteriostatic or bactericidal effect
- MBC ([1]; Staphylococcus epidermidis, ATCC14990, 24 h, read-out: Minimum Bactericidal Concentration (MBC)): > 200 µg/mL
- MIC ([1]; Staphylococcus epidermidis, ATCC14990, read-out: Minimum Inhibitory Concentration (MIC)): > 200 µg/mL
- MBC (S. aureus ATCC 25923; Staphylococcus aureus, ATCC25923, 24 h, read-out: Minimum Bactericidal Concentration (MBC)): > 200 µg/mL
- MIC (S. aureus ATCC 25923; Staphylococcus aureus, ATCC25923, read-out: Minimum Inhibitory Concentration (MIC)): > 200 µg/mL
- MBC (P. aeruginosa ATCC 27853; Pseudomonas aeruginosa, ATCC27853, 24 h, read-out: Minimum Bactericidal Concentration (MBC)): > 200 µg/mL
- MIC (P. aeruginosa ATCC 27853; Pseudomonas aeruginosa, ATCC27853, read-out: Minimum Inhibitory Concentration (MIC)): > 200 µg/mL
- MBC (S. aureus ATCC 43300; Staphylococcus aureus, ATCC43300, 24 h, read-out: Minimum Bactericidal Concentration (MBC)): > 200 µg/mL
- MIC (S. aureus ATCC 43300; Staphylococcus aureus, ATCC43300, read-out: Minimum Inhibitory Concentration (MIC)): > 200 µg/mL
- MBC ([2]; Staphylococcus epidermidis, ATCC35984, 24 h, read-out: Minimum Bactericidal Concentration (MBC)): > 200 µg/mL
- MIC ([2]; Staphylococcus epidermidis, ATCC35984, read-out: Minimum Inhibitory Concentration (MIC)): > 200 µg/mL
- MBC (E. coli ATCC 25922; Escherichia coli, ATCC25922, 24 h, read-out: Minimum Bactericidal Concentration (MBC)): > 200 µg/mL
- MIC (E. coli ATCC 25922; Escherichia coli, ATCC25922, read-out: Minimum Inhibitory Concentration (MIC)): > 200 µg/mL
- MBC (S. aureus ATCC 49230; Staphylococcus aureus, ATCC49230, 24 h, read-out: Minimum Bactericidal Concentration (MBC)): > 200 µg/mL
- MIC (S. aureus ATCC 49230; Staphylococcus aureus, ATCC49230, read-out: Minimum Inhibitory Concentration (MIC)): > 200 µg/mL

Reference: PMC11350787, “Antimicrobial Properties and Cytotoxicity of LL-37-Derived Synthetic Peptides to Treat Orthopedic Infections” (Antibiotics, 2024)
